Measured values from patent US8206983B2, “In vitro methods for the induction and maintenance of plant cell lines as single suspension cells with intact cell walls” (Dow AgroSciences, LLC., priority 2006, dated 2012).

System: JTNT1 single cells
Assay: AFLP analysis of genomic instability in JTNT1 single cells produced in 1 uM diphenylpyrazole
Type: cell-based, tobacco
Experimental: JTNT1 Tobacco single cell initiation and sample collection. JTNT1 Tobacco single cells were initiated in two different media, NT1B with 3% sucrose (NT1B-Suc) and NT1B with 3% glycerol (NT1B-Gly) in 3.5 day culture cycle. […] The flasks were closed with a foam stopper and cultured on a orbital shaker at 130 rpm in dark at 25-28° C. The cultures were sub cultured every 3.5 days up to a period of 14 days. Four samples (Suc/Gly grown cells and the control cultures in Suc/Gly media with 0.2% DMSO) of the cultures were harvested every 3.5 days by spinning the suspension at 3000 rpm for 5 minutes. The samples were immediately lyophilized to prevent any cell oxidation to minimize any deleterious effect on the samples introduced post harvest. Single cells were stained with Hoechst nuclear stain for an hour and observed under scopes for any nuclear anomaly up to two culture cycles.
DNA extraction. Genomic DNA from representative samples were harvested from 3.5, 7, 10.5, and 14 days. Suc and Gly cultures along with the controls (10 samples) were extracted using CTAB protocol (See Appendix-Example 12). DNA was quantified using PicoGreen® dye from Molecular Probes, Inc. (Eugene, Oreg.). Each well of a microtiter plate contained 90 μl of 200-fold picogreen combined with 10 μl of DNA sample at 40× dilution or Lambda DNA standards (0, 2.5, 5 and 10 ng/μl). Plates were shaken briefly using standard plate shaker, and fluorescence was read (excitation ˜480 nm, emission ˜520 nm) using Spectra Max GeminiXS fluorometer from Molecular Devices (Sunnyvale, Calif.). Each sample was quantified in triplicate, and an average of the three results was used for subsequent dilutions. The DNA sample concentrations were diluted to working concentration of 91 ng/μl with sterile water.
AFLP analysis. Amplified fragment length polymorphism (AFLP) assays were performed using a modification of the protocol of Vos et. al. (1995), as described in Bryan et. al. (2002). The 6-bp cutting restriction enzyme EcoRI was used in combination with the 4-bp cutting restriction enzyme MseI. EcoR1 fluorescently labeled and Mse1 non-labeled AFLP primers were ordered from Applied Biosystems (Foster City, Calif.). AFLP analysis was carried out using Applied Biosystems' AFLP Plant Mapping Protocol through the selective amplification reaction with one modification. The modification was that digestion/ligation reactions were incubated at 37° C. overnight. Selectively amplified products were diluted 2 fold in sterilized deionized water. 0.5 ul of the diluted product was combined with 5 ul of loading buffer (5 ul GeneScan 500 by LIZ size standard mixed with 500 ul ABI HiDi Formamide). Samples were analyzed on an AB3730XL DNA Analyzer with G5-RCT spectral matrix using standard conditions. Data was then imported into GeneMapper® version 4.0 (Applied Biosystems, 2005). Alleles were assigned a numeric value according to PCR fragment size.

## CCOC(=O)COc1nn(-c2ccccc2)c(-c2ccccc2)c1Cl [DAS-PMTI-1]
All primer combinations, 14 d, Gly, 1 uM
  Number of polymorphic bands, Total: 34
Concentration range tested
  subculture cycles without genomic instability problem: at least 4 subculture cycles
Primer 1p AC/CAG, 3.5 d, Gly, 1 uM
  Number of polymorphic bands: 0
Primer 1p AC/CAG, 3.5 d, Suc, 1 uM
  Number of polymorphic bands: 0
Primer 1p AC/CAG, 7 d, Gly, 1 uM
  Number of polymorphic bands: 0
Primer 1p AC/CAG, 7 d, Suc, 1 uM
  Number of polymorphic bands: 0
Primer 1p AC/CAG, 10.5 d, Gly, 1 uM
  Number of polymorphic bands: 0
Primer 1p AC/CAG, 10.5 d, Suc, 1 uM
  Number of polymorphic bands: 0
Primer 1p AC/CAG, 14 d, Gly, 1 uM
  Number of polymorphic bands: 5
Primer 1p AC/CAG, 14 d, Suc, 1 uM
  Number of polymorphic bands: 0
Primer 2p AGC/CAG, 3.5 d, Gly, 1 uM
  Number of polymorphic bands: 0
Primer 2p AGC/CAG, 3.5 d, Suc, 1 uM
  Number of polymorphic bands: 0
Primer 2p AGC/CAG, 7 d, Gly, 1 uM
  Number of polymorphic bands: 0
Primer 2p AGC/CAG, 7 d, Suc, 1 uM
  Number of polymorphic bands: 0
Primer 2p AGC/CAG, 10.5 d, Gly, 1 uM
  Number of polymorphic bands: 0
Primer 2p AGC/CAG, 10.5 d, Suc, 1 uM
  Number of polymorphic bands: 0
Primer 2p AGC/CAG, 14 d, Gly, 1 uM
  Number of polymorphic bands: 10
Primer 2p AGC/CAG, 14 d, Suc, 1 uM
  Number of polymorphic bands: 0
Primer 3p AGC/CTG, 3.5 d, Gly, 1 uM
  Number of polymorphic bands: 0
Primer 3p AGC/CTG, 3.5 d, Suc, 1 uM
  Number of polymorphic bands: 0
Primer 3p AGC/CTG, 7 d, Gly, 1 uM
  Number of polymorphic bands: 0
Primer 3p AGC/CTG, 7 d, Suc, 1 uM
  Number of polymorphic bands: 0
Primer 3p AGC/CTG, 10.5 d, Gly, 1 uM
  Number of polymorphic bands: 0
Primer 3p AGC/CTG, 10.5 d, Suc, 1 uM
  Number of polymorphic bands: 0
Primer 3p AGC/CTG, 14 d, Gly, 1 uM
  Number of polymorphic bands: 0
Primer 3p AGC/CTG, 14 d, Suc, 1 uM
  Number of polymorphic bands: 0
Primer 4p ACT/CTT, 3.5 d, Gly, 1 uM
  Number of polymorphic bands: 0
Primer 4p ACT/CTT, 3.5 d, Suc, 1 uM
  Number of polymorphic bands: 0
Primer 4p ACT/CTT, 7 d, Gly, 1 uM
  Number of polymorphic bands: 0
Primer 4p ACT/CTT, 7 d, Suc, 1 uM
  Number of polymorphic bands: 0
Primer 4p ACT/CTT, 10.5 d, Gly, 1 uM
  Number of polymorphic bands: 0
Primer 4p ACT/CTT, 10.5 d, Suc, 1 uM
  Number of polymorphic bands: 0
Primer 4p ACT/CTT, 14 d, Gly, 1 uM
  Number of polymorphic bands: 5
Primer 4p ACT/CTT, 14 d, Suc, 1 uM
  Number of polymorphic bands: 0
Primer 5p ACT/CAG, 3.5 d, Gly, 1 uM
  Number of polymorphic bands: 0
Primer 5p ACT/CAG, 3.5 d, Suc, 1 uM
  Number of polymorphic bands: 0
Primer 5p ACT/CAG, 7 d, Gly, 1 uM
  Number of polymorphic bands: 0
Primer 5p ACT/CAG, 7 d, Suc, 1 uM
  Number of polymorphic bands: 0
Primer 5p ACT/CAG, 10.5 d, Gly, 1 uM
  Number of polymorphic bands: 0
Primer 5p ACT/CAG, 10.5 d, Suc, 1 uM
  Number of polymorphic bands: 0
Primer 5p ACT/CAG, 14 d, Gly, 1 uM
  Number of polymorphic bands: 3
Primer 5p ACT/CAG, 14 d, Suc, 1 uM
  Number of polymorphic bands: 0
Primer 7p ACC/CAG, 3.5 d, Gly, 1 uM
  Number of polymorphic bands: 0
Primer 7p ACC/CAG, 3.5 d, Suc, 1 uM
  Number of polymorphic bands: 0
Primer 7p ACC/CAG, 7 d, Gly, 1 uM
  Number of polymorphic bands: 0
Primer 7p ACC/CAG, 7 d, Suc, 1 uM
  Number of polymorphic bands: 0
Primer 7p ACC/CAG, 10.5 d, Gly, 1 uM
  Number of polymorphic bands: 0
Primer 7p ACC/CAG, 10.5 d, Suc, 1 uM
  Number of polymorphic bands: 0
Primer 7p ACC/CAG, 14 d, Gly, 1 uM
  Number of polymorphic bands: 4
Primer 7p ACC/CAG, 14 d, Suc, 1 uM
  Number of polymorphic bands: 0
Primer 8p ACC/CTG, 3.5 d, Gly, 1 uM
  Number of polymorphic bands: 0
Primer 8p ACC/CTG, 3.5 d, Suc, 1 uM
  Number of polymorphic bands: 0
Primer 8p ACC/CTG, 7 d, Gly, 1 uM
  Number of polymorphic bands: 0
Primer 8p ACC/CTG, 7 d, Suc, 1 uM
  Number of polymorphic bands: 0
Primer 8p ACC/CTG, 10.5 d, Gly, 1 uM
  Number of polymorphic bands: 0
Primer 8p ACC/CTG, 10.5 d, Suc, 1 uM
  Number of polymorphic bands: 0
Primer 8p ACC/CTG, 14 d, Gly, 1 uM
  Number of polymorphic bands: 0
Primer 8p ACC/CTG, 14 d, Suc, 1 uM
  Number of polymorphic bands: 0
Primer 9p ACA/CAG, 3.5 d, Gly, 1 uM
  Number of polymorphic bands: 0
Primer 9p ACA/CAG, 3.5 d, Suc, 1 uM
  Number of polymorphic bands: 0
Primer 9p ACA/CAG, 7 d, Gly, 1 uM
  Number of polymorphic bands: 0
Primer 9p ACA/CAG, 7 d, Suc, 1 uM
  Number of polymorphic bands: 0
Primer 9p ACA/CAG, 10.5 d, Gly, 1 uM
  Number of polymorphic bands: 0
Primer 9p ACA/CAG, 10.5 d, Suc, 1 uM
  Number of polymorphic bands: 0
Primer 9p ACA/CAG, 14 d, Gly, 1 uM
  Number of polymorphic bands: 7
Primer 9p ACA/CAG, 14 d, Suc, 1 uM
  Number of polymorphic bands: 0
